Results on 16 molecules are retold here after patent publication US20080131920A1, “Ion flux in biological processes, and methods related thereto” (priority 2005, published 2008).

Series [1] relates to Xenopus tail regeneration. The settings on record: compound in medium beginning immediately after tail amputation (stage 40-41).
The subject of series [2] is Sonic hedgehog (Shh), Nodal. The experiment in a line: Sidedness of Shh and Nodal expression in chick embryos (in ovo culture, in situ hybridization). To be noted: in vivo. The source says: We examined the effect of inhibiting H^+-V-ATPase activity on the expression of the early left-sided marker Sonic hedgehog (Shh). Inhibition of H^+-V-ATPase activity following treatment with concanamycin or DCCD specifically randomized the expression of Shh, as well as that of and the downstream marker Nodal. Compared to controls, in which these two markers are always left-sided, concanamycin induced aberrant sidedness of Shh expression in 67% and Nodal in 24% of embryos. Thus, as in Xenopus, H^+-V-ATPase is upstream of the known asymmetric gene cascade, and is required for normal LR patterning in chicks.
To perform a pharmacological screen on chick embryos with minimal disturbance to normal morphogenesis, we optimized a chicken in ovo culture system. A small hole was made on the top of each egg (prior to incubation), and 5 ml of light albumin was removed. […]. Eggs were securely wrapped with Scotch tape, incubated at 37.5° C. to the desired stages, then fixed for analysis of laterality markers by in situ hybridization.
Whole mount in situ hybridization (WISH) on Xenopus was performed according to standard methods. DNA used to transcribe in situ hybridization probes were XNr-1 (Lohr et al., 1998, Developmental Genetics 23: 194-202; Lowe et al., 1996, Nature 381: 158-161); cShh (Levin et al., 1995, Cell 82: 803-814); cNodal (Levin et al., 1995, Cell 82: 803-814).

A further series relates to Xenopus embryos. In kind it is in vivo. To be noted: treated from fertilization to stage 7; organs scored at stage 45.
The next series concerns Dugesia japonica. The experiment in a line: Planarian regeneration, anterior-posterior phenotype (anteriorizing index) under GJC inhibition. In kind it is in vivo. The method, then:
Regenerating worms were contacted with the compound at an early stage of regeneration (2 days after cutting). 1-10 μM heptanol was dissolved in the medium. […] At 7 days post-cutting, we assayed the worms for the morphology of blastemas.
We next sought to ascertain whether the anteriorizing effect was dependent on the AP (anterior-posterior) level from which the fragment originated. Worms were amputated at four levels to make five body fragments: head, pre-pharyngeal, trunk (including the pharynx), post-pharyngeal and tail fragments.
The asexual clonal strain GI of the planarian, Dugesia japonica, was used in these study. In all experiments, the worms were starved for 1 week before use.
Intact worms 1-1.5 cm long were put into heptanol (or hexanol) solution (0.0045-0.006% vigorously vortexed into spring water) immediately prior to amputation to equilibrate the worms with the drug solution. The worms were amputated at four levels to generate the head, pre-pharyngeal, trunk (or “pharyngeal”), post-pharyngeal, and tail fragments. Worm fragments were incubated at 22° C. for 2 days. The heptanol solution was exchanged for fresh solution every day. The worms were then washed with water twice and incubated in worm water for 14-20 days to monitor the phenotypes.
We developed a quantitative scheme allowing comparison of degree of anteriorization among groups of worms. Each worm was scored on the following scale by observing the posterior blastema: 0 points—normal (a normal worm with a fully-patterned tail), 1 point—weak anteriorization of posterior blastema (missing tail or bipolar pharynx), 2 points—stronger anteriorization of posterior blastema (incomplete ectopic head with eye structures), or 3 points—complete anteriorization of posterior blastema (bipolar head, where the ectopic head has complete development with 2 normal eyes). For each group of worms, we calculated an average score that is the sum of all scores for the worms divided by the total number of worms. For convenience, the index was scaled from 0 to 100 (final index=average score*100/3). On this scale, a group of worms that were all normal would score 0, while a group of worms all of which were fully double-head would score 100. This scheme was focused on ascertaining the extent of anteriorization as judged by external morphology.

As to `O=C(O)c1c2ccccc2cc2ccccc12` [9-anthracene-carboxylic acid], in series [1], the “effect on rate or extent of tail regeneration” value (“effect on rate or extent” for short) is “no effect”.
For `CC1(C)[C@@H](O)CC[C@]2(C)[C@H]3C(=O)C=C4[C@@H]5C[C@@](C)(C(=O)O)CC[C@]5(C)CC[C@@]4(C)[C@]3(C)CC[C@@H]12` [18-β-glycyrrhetinic acid], the “effect on rate or extent” value in series [1] was “no effect”.
In the case of `[Ba+2].[Cl-].[Cl-]` [BaCl], in series [1], the “effect on rate or extent” value is given as “absence of regeneration”.
For the molecule `C(=NC1CCCCC1)=NC1CCCCC1` [DCCD], the “expression of Shh and Nodal (sidedness)” value in series [2] is “randomized”.
As to `CCN(c1nc(N)c(C(=O)NC(=N)N)nc1Cl)C(C)C` [EIPA, Ethylisopropyl amiloride], in series [1], the “effect on rate or extent” value is “no effect”.
As to `O=C1CCC(N2Cc3ccccc3C2=O)C(=O)N1` (centres unmarked) [EM12], the “effect on rate or extent” value in series [1] was “no effect”.
Same read-out and setting: as for `Cc1nc2c(OCc3ccccc3)cccn2c1CC#N` [SCH28080], the entry is “no effect”.
Still for that read-out and setting: as for `COc1ccc2c(c1OC)CN1CCc3cc4c(cc3C1C2)OCO4` (centres unmarked) [THB, Tetrahydroberberine], the entry is “no effect”; as for `N=C(N)NC(=O)c1nc(Cl)c(N)nc1N` [amiloride], “no effect”.
Take `CO/C1=C\C(C)=C\[C@@H](C)[C@@H](O)[C@@H](C)C/C(C)=C/C=C/[C@H](OC)[C@@H]([C@@H](C)[C@@H](O)[C@H](C)[C@@]2(O)C[C@@H](O)[C@H](C)[C@@H](C(C)C)O2)OC1=O` [bafilomycin]: in the series with Xenopus embryos, the “heterotaxia, % of the embryos” value is recorded as 36%.
Consider `CC1=NS(=O)(=O)c2cc(Cl)ccc2N1` [diazoxide], for which the “effect on rate or extent” value in series [1] is “no effect”.
Still for that read-out and setting: the value for `COc1ccc(Cl)cc1C(=O)NCCc1ccc(S(=O)(=O)NC(=O)NC2CCCCC2)cc1` [glibenclamide] was “no effect”.
`CCCCCCCO` [heptanol]: the “toxicity to the worms” value with Dugesia japonica (1-10 μM) is “not toxic”. Also, in the series on Dugesia japonica (1-10 μM in the medium, scored 7 days post-cutting), the “trunk fragments with anteriorization of both blastemas” value came out at 43%. The complete bipolar heads in the series with Dugesia japonica (1-10 μM, trunk fragments) was determined as 16%. Further, the “effect on rate or extent” value in series [1] is “no effect”.
For `CCCCCCO` [hexanol], in the series with Dugesia japonica (in vivo), the “strong anteriorization of the posterior blastema” value was “never induced strong anteriorization” and the tail regeneration result is listed as “did inhibit tail regeneration”.
On to `C[C@@H]1O[C@@H](O[C@H]2C[C@@H](O)[C@]3(CO)[C@H]4[C@H](O)C[C@]5(C)[C@@H](C6=CC(=O)OC6)CC[C@]5(O)[C@@H]4CC[C@]3(O)C2)[C@H](O)[C@H](O)[C@H]1O` [ouabain], for which the “effect on rate or extent” value in series [1] was “no effect”.
On to `CCOC(=O)c1cccc(N)c1` [tricaine], for which the “effect on rate or extent” value in series [1] is “absence of regeneration”.
